Source: ChEMBL document CHEMBL1201862, “PubChem BioAssay data set” (2004)
Calls of active or inactive are those of the source.

Legend:
[1] = target: Heat shock protein HSP 90-alpha (Homo sapiens, UniProt P07900); format: functional, organism-based
SUMO-activating enzyme [2] = target: T1, SUMO-activating enzyme (Homo sapiens, UniProt Q9UBT2); assay: blockers of UBC9-mediated SUMO conjugation – biochemical, AlphaScreen, SUMOylation inhibitor project, confirmation (AID 2018); format: functional
[3] = target: T2, Replicative DNA helicase DnaB (Mycobacterium tuberculosis, UniProt P9WMR3); assay: DnaB intein splicing inhibitors, dose response, biochemical, cell-free fluorescence (AID 449749); format: functional
T2 sequence (P9WMR3 whole entry): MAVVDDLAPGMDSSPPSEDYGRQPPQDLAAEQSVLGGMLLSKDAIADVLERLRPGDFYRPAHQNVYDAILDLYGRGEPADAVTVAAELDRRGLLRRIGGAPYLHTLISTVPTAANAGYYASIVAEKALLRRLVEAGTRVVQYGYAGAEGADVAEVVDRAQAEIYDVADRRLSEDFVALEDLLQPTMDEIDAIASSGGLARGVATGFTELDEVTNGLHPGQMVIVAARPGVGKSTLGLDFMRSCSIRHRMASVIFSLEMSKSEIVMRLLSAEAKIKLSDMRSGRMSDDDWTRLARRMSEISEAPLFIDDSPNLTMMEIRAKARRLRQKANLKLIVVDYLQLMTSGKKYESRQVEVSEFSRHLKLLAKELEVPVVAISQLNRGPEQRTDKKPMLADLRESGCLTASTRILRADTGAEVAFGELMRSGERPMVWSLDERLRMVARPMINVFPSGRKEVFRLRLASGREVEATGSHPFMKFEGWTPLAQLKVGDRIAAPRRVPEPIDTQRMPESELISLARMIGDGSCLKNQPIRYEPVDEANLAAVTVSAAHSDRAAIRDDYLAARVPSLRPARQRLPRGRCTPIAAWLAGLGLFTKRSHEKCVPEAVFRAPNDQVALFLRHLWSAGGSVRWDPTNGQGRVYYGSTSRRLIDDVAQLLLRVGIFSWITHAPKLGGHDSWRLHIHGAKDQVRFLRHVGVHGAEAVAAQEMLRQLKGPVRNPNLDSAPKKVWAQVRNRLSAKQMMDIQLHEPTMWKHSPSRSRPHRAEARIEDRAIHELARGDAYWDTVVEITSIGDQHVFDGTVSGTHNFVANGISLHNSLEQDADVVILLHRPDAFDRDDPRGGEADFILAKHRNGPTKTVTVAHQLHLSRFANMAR

Protein RecA = target: T3, Protein RecA (Mycobacterium tuberculosis, UniProt P9WHJ3); assay: Fluorescence Cell-Free Homogeneous Dose Retest to Identify Inhibitors of RecA-Intein Splicing Activity. [Related pubchem assays (depositor defined):AID2097, AID2223, AID489010, AID492950]; format: functional
T3 sequence (P9WHJ3 whole entry): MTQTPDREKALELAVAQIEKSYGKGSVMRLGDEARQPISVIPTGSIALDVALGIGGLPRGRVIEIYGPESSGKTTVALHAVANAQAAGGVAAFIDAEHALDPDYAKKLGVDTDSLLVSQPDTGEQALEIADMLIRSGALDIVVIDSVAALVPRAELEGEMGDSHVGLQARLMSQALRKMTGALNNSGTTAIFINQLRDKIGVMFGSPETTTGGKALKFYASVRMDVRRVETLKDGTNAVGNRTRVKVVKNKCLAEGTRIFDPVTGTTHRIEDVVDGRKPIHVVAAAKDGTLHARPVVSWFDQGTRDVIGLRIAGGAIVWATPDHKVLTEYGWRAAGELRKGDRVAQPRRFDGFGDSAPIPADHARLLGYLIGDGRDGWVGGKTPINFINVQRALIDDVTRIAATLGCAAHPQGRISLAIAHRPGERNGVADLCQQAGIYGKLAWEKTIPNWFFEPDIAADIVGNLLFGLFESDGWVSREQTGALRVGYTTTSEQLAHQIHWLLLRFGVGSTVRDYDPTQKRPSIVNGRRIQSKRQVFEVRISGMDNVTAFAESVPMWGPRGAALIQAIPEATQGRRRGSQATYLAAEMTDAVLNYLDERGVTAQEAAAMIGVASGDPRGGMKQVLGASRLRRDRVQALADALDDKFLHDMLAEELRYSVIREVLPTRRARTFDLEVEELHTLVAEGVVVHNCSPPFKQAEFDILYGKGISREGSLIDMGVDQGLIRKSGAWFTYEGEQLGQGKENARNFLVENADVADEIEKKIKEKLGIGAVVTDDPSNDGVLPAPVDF

[4] = HEK-293T cell viability reduction – luminescence, B-cell screen hits, cytotoxicity control for BCR NF-kB inhibitor project, dose response (AID 489021); format: functional, cell-based;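 also: HEK-293T cells carrying an NF-kB luciferase reporter; cells exposed to compound for about 14 hours before viability readout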
[5] = decrease of insulin promoter-GFP reporter – imaging, high-content screening, mouse beta cells (AID 1628); format: functional; conditions: MIN6
[6] = MIN6 cell viability loss – mouse insulinoma, cytotoxicity control, dose response (AID 2122); format: functional;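 also: confirmatory high-throughput counterscreen run to flag cytotoxic compounds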
SUMO-activating enzyme [7] = target: T1, SUMO-activating enzyme; assay: blockers of SAE1/SAE2–UBC9 SUMO transfer – biochemical, HTRF, uHTS, primary screen (AID 2006); format: protein-complex assay
[8] = viability loss in HEK293 cells – cell-based, plate reader, cherry-picked samples, cytotoxicity control, dose response (AID 743446); format: functional
[9] = blockers of bursicon-stimulated LGR2 cAMP reporter – cell-based, HEK293, CRE-luciferase reporter, cherry pick, set 2, dose response (AID 743343); format: functional;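 also: transfected cells were stimulated with diluted bursicon conditioned medium after compound addition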
[10] = blockade of melanocortin 4 receptor signaling – cell-based, plate reader, cherry pick, counter-screen for LGR2 antagonist project, dose response (AID 743444); format: functional;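 also: transfected HEK 293 cells stimulated with alpha-MSH peptide; potency of inhibitors of the alpha-MSH evoked signal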
[11] = toxicity toward HepG2 liver cells – cell-based, plate reader, cherry-pick, antagonist series, cytotoxicity control, dose response (AID 743416); format: functional
INS1 = assay: INS-1E survival protection against cytokine death – cell-based, luminescence, retest, dose response (AID 449756); format: functional; conditions: Rattus norvegicus;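 also: cell death triggered by IL-1 beta plus TNF-alpha plus IFN-gamma mixture; protective hits raise ATP signal compared with cytokine alone wells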
[12] = target: T4, High affinity choline transporter 1 (Homo sapiens, UniProt Q9GZV3); assay: human choline transporter blockers, potency – cell-based, 5-point CRC, membrane potential dye, dose response (AID 504840); format: functional
T4 sequence (Q9GZV3 whole entry): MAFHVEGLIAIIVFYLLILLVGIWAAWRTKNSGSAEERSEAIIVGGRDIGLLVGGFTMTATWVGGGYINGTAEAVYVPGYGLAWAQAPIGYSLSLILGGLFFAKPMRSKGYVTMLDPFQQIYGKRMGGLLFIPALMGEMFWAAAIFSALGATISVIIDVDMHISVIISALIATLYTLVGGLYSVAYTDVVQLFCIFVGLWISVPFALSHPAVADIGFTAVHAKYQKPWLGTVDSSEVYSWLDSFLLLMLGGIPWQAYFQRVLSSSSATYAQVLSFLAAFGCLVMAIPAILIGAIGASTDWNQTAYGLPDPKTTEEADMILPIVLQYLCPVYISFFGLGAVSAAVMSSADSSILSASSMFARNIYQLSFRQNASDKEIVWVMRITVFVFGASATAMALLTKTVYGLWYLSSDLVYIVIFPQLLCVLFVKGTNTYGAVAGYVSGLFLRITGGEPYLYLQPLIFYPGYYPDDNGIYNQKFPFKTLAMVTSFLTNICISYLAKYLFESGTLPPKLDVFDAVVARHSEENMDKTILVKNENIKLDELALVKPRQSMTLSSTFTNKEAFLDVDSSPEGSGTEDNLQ

[13] = A549 cell cytotoxicity, dose response, cytotoxicity control, plate reader, cherry-pick, antagonist series (AID 743412); format: functional, cell-based

T1 sequence (Q9UBE0 whole entry): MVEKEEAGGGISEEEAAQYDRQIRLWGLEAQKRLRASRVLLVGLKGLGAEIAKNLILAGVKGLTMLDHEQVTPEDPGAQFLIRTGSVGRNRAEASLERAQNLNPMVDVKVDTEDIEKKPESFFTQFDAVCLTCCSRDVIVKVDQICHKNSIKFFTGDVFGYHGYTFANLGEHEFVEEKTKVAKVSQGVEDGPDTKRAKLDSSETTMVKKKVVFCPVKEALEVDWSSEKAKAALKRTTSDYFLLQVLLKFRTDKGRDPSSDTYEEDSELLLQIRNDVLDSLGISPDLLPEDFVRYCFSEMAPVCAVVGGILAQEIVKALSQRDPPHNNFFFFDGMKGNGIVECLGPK
T1 sequence (Q9UBT2 whole entry): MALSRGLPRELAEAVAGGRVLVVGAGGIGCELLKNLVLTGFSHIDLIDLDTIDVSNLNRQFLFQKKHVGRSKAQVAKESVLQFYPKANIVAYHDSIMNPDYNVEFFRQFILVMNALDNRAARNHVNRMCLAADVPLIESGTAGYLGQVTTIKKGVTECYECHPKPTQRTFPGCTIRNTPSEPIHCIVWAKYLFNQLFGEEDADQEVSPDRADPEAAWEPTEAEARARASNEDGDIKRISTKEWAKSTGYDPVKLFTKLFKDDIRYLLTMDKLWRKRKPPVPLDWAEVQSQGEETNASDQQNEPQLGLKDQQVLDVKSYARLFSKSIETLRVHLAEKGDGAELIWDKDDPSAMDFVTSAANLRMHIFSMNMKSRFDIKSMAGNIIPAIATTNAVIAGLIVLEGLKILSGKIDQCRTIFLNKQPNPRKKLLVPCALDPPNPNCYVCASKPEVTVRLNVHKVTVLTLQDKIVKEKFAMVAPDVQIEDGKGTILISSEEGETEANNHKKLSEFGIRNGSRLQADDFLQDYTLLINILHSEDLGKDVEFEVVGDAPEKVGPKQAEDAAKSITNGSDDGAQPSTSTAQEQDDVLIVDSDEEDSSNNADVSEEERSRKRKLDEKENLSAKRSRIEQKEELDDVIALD

O=C(Nc1nc(-c2ccccc2)cs1)c1ccccc1NS(=O)(=O)c1ccc(F)cc1
active: AC50 [1] 2.91 µM | IC50 (SUMO-activating enzyme [2]) 7.97 µM | AC50 [3] 2.17 µM | EC50 (Protein RecA) 8.85 µM | IC50 [4] 14.8 µM | IC50 [5] 3.02 µM | IC50 [6] 2.18 µM | IC50 (SUMO-activating enzyme [7]) 18.4 µM | AC50 [8] 3.39 µM | AC50 [9] 28.6 µM | AC50 [10] 6.01 µM | AC50 [11] 11.2 µM | AC50 (INS1) 3.41 µM | IC50 [12] 13.8 µM | AC50 [13] 14.6 µM
